Values quoted from earlier work in patent US8999393B1, “Sustained release formulations of lorazepam” (Edgemont Pharmaceuticals LLC, priority 2013, dated 2015).

Assays:
[1] = according to the package insert

Q: With `O=C1Nc2ccc(Cl)cc2C(c2ccccc2Cl)=NC1O` (racemic) [lorazepam, ±7-chloro-5-(2-chlorophenyl)-1,3-dihydro-3-hydroxy-2H-1,4-benzodiazepin-2-one] as the compound, how does the solubility in water read?
A: almost insoluble

Q: What about the “half-life in human plasma” value [1] of the same compound?
A: about 12 hours
